In patent publication US8324390B2, “Tetrazole-substituted anthranilamides as pesticides” (Bayer CropScience AG, priority 2008, dated 2012) one finds pest or weed control and chromatographic logP data, which are given here for 28 compounds.

The subject of data set [1] is larvae of the mustard beetle (Phaedon cochleariae). The data set is described as follows: Phaedon test (PHAECO spray treatment). As to conditions: Phaedon cochleariae, in Brassica rapa, foliar, read-out: effect in % (beetle larvae killed).
In data set [2] the test system is caterpillars of the armyworm (Spodoptera frugiperda). The data set is described as follows: Spodoptera frugiperda test (SPODFR spray treatment). The class given is in vivo. As to conditions: Spodoptera frugiperda, foliar, read-out: effect in % (caterpillars killed). The source says:
(§1) Solvent: 78.0 parts by weight of acetone

Data set [3] relates to green peach aphid (Myzus persicae). The experiment in a line: Myzus test (MYZUPE spray treatment). The data set is classed as in vivo. As to conditions: Myzus persicae, foliar, read-out: effect in % (aphids killed).
Source text: Solvent: 78 parts by weight of acetone
as §1

Data set [4] can be described thus: log P determination by HPLC (EEC Directive 79/831 Annex V.A8). The data set is classed as physicochemical. The method, then:
The measurements were carried out using an Agilent 1100 LC system with a 50*4.6 Zorbax Eclipse C18 1.8 μm column (oven temperature 55° C., flow rate 2.0 ml/min).
The following mobile phases were used:
Mobile phase A: acetonitrile+1000 μl of formic acid/l
Mobile phase B: Millipore water+900 μl of formic acid/l

Setting [5] is: application rate 100 g/ha, maize leaf discs.
The mark [6] stands for this setting: application rate 100 g/ha, Chinese cabbage leaf discs.
The mark [7] stands for this setting: reversed-phase HPLC, Zorbax Eclipse C18 column, by HPLC according to EEC Directive 79/831 Annex V.A8, read-out: log P.
Where [8] appears, read: reversed-phase HPLC, Zorbax Eclipse C18 column, determined by HPLC according to EEC Directive 79/831 Annex V.A8, read-out: log P.

Where two headings read alike, the source gives them in different places.

`Cc1cc(C#N)cc(C(=O)NC(C)C)c1NC(=O)c1cc(Cn2nnc(C(F)(F)F)n2)nn1-c1ccccc1Cl` [Example 341]: the pest or weed control at 100 g/ha in data set [1], in data set [2] (setting [5]) and in data set [3] (setting [6]) was no less than 80% in each case. In addition, the chromatographic logP in data set [4] (setting [7]) stood at 3.6.
Turning to `CCNC(=O)c1cc(C#N)cc(C)c1NC(=O)c1cc(Cn2nnc(C(F)(F)F)n2)nn1-c1ccccc1Cl` [Example 342], the pest or weed control at 100 g/ha in data set [1], in data set [2] (setting [5]) and in data set [3] (setting [6]) was no less than 80% each time. In data set [4] (setting [7]), the chromatographic logP amounted to 3.36.
`CNC(=O)c1cc(Cl)cc(C)c1NC(=O)c1cc(Cn2nnc(C(F)(F)F)n2)nn1-c1ccccc1Br` [Example 345]: the pest or weed control at 100 g/ha in data set [1], in data set [2] (setting [5]) and in data set [3] (setting [6]) was no less than 80% throughout. Besides, in data set [4] (setting [7]), the chromatographic logP amounted to 3.5.
Regarding `CCNC(=O)c1cc(Cl)cc(C)c1NC(=O)c1cc(Cn2nnc(C(F)(F)F)n2)nn1-c1ncccc1Br` [Example 346], the pest or weed control at 100 g/ha in data set [1], in data set [2] (setting [5]) and in data set [3] (setting [6]) was no less than 80% throughout. Moreover, the chromatographic logP in data set [4] (setting [7]) is 3.23.
As to `CNC(=O)c1cc(C#N)cc(C)c1NC(=O)c1cc(Cn2nnc(C(F)(F)F)n2)nn1-c1ccccc1Br` [Example 349], the pest or weed control at 100 g/ha in data set [1], in data set [2] (setting [5]) and in data set [3] (setting [6]) was no less than 80% throughout. Further, the chromatographic logP in data set [4] (setting [7]) amounted to 3.15.
In the case of `Cc1cc(I)cc(C(N)=O)c1NC(=O)c1cc(Cn2nnc(C(F)(F)F)n2)nn1-c1ncccc1Br` [Example 351], the pest or weed control at 100 g/ha in data set [1], in data set [2] (setting [5]) and in data set [3] (setting [6]) was no less than 80% each time. Besides, in data set [4] (setting [7]), the chromatographic logP was 2.95.
With `Cc1cc(Br)cc(C(N)=O)c1NC(=O)c1cc(Cn2nnc(C(F)(F)F)n2)nn1-c1ncccc1Br` [Example 353], the pest or weed control at 100 g/ha in data set [1], in data set [2] (setting [5]) and in data set [3] (setting [6]) was no less than 80% each time. The chromatographic logP in data set [4] (setting [7]) was found to be 2.82.
Take `CNC(=O)c1cc(Br)cc(C)c1NC(=O)c1cc(Cn2nnc(C(F)(F)F)n2)nn1-c1ncccc1Br` [Example 354]: the pest or weed control at 100 g/ha in data set [1], in data set [2] (setting [5]) and in data set [3] (setting [6]) was no less than 80% in each case. The chromatographic logP in data set [4] (setting [7]) was found to be 3.12.
With `Cc1cc(Cl)cc(C(N)=O)c1NC(=O)c1cc(Cn2nnc(C(F)(C(F)(F)F)C(F)(F)F)n2)nn1-c1ncccc1Cl` [Example 360], the pest or weed control at 100 g/ha in data set [1], in data set [2] (in Zea mays) and in data set [3] (in Brassica rapa) was no less than 80% in each case. Besides, the chromatographic logP in data set [4] (log P) came out at 3.46.
For `CSC[C@H](C)NC(=O)c1cc(Cl)cc(C)c1NC(=O)c1cc(Cn2nnc(C(F)(C(F)(F)F)C(F)(F)F)n2)nn1-c1ncccc1Cl` [Example 361], the pest or weed control at 100 g/ha in data set [1], in data set [2] (setting [5]) and in data set [3] (setting [6]) was no less than 80% in each case. For the same compound, the chromatographic logP in data set [4] (setting [7]) was 4.39.
Consider `CNC(=O)c1cc(C#N)cc(C)c1NC(=O)c1cc(Cn2nnc(C(F)(C(F)(F)F)C(F)(F)F)n2)nn1-c1ncccc1Cl` [Example 367], for which the pest or weed control at 100 g/ha in data set [1], in data set [2] (in Zea mays) and in data set [3] (in Brassica rapa) was no less than 80% throughout. The chromatographic logP in data set [4] (log P) is 3.35.
For the compound `Cc1cc(C#N)cc(C(N)=O)c1NC(=O)c1cc(Cn2nnc(C(F)(C(F)(F)F)C(F)(F)F)n2)nn1-c1ncccc1Cl` [Example 372], the pest or weed control at 100 g/ha in data set [1], in data set [2] (in Zea mays) and in data set [3] (in Brassica rapa) was no less than 80% throughout. Also, the chromatographic logP in data set [4] (log P) turned out to be 3.13.
For the compound `CSC[C@H](C)NC(=O)c1cc(C#N)cc(C)c1NC(=O)c1cc(Cn2nnc(C(F)(C(F)(F)F)C(F)(F)F)n2)nn1-c1ncccc1Cl` [Example 376], the pest or weed control at 100 g/ha in data set [1], in data set [2] (setting [5]) and in data set [3] (setting [6]) was no less than 80% each time. In addition, the chromatographic logP in data set [4] (setting [7]) was 3.96.
As for `CNC(=O)c1cc(I)cc(C)c1NC(=O)c1cc(Cn2nnc(C(F)(C(F)(F)F)C(F)(F)F)n2)nn1-c1ncccc1Cl` [Example 377], the pest or weed control at 100 g/ha in data set [1], in data set [2] (in Zea mays) and in data set [3] (in Brassica rapa) was no less than 80% each time. The chromatographic logP in data set [4] (log P) is 3.94.
For `CSC[C@H](C)NC(=O)c1cc(I)cc(C)c1NC(=O)c1cc(Cn2nnc(C(F)(C(F)(F)F)C(F)(F)F)n2)nn1-c1ncccc1Cl` [Example 385], the pest or weed control at 100 g/ha in data set [1], in data set [2] (setting [5]) and in data set [3] (setting [6]) was no less than 80% each time. The chromatographic logP in data set [4] (setting [7]) worked out at 4.63.
For `NC(=O)c1cc(Cl)cc(Cl)c1NC(=O)c1cc(Cn2nnc(C(F)(C(F)(F)F)C(F)(F)F)n2)nn1-c1ncccc1Cl` [Example 391], the pest or weed control at 100 g/ha in data set [1], in data set [2] (in Zea mays) and in data set [3] (in Brassica rapa) was no less than 80% each time. The chromatographic logP in data set [4] (log P) was found to be 3.41.
With `Cc1cc(C#N)cc(C(=O)NOCC2CC2)c1NC(=O)c1cc(Cn2nnc(C(F)(F)F)n2)nn1-c1ncccc1Cl` [Example 397], the pest or weed control at 100 g/ha in data set [1], in data set [2] (in Zea mays) and in data set [3] (in Brassica rapa) was no less than 80% each time. This compound showed a chromatographic logP in data set [4] (log P) of 2.96.
For `Cc1cc(C#N)cc(C(=O)NOC(C)C)c1NC(=O)c1cc(Cn2nnc(C(F)(F)F)n2)nn1-c1ncccc1Cl` [Example 398], the pest or weed control at 100 g/ha in data set [1], in data set [2] (in Zea mays) and in data set [3] (in Brassica rapa) was no less than 80% each time. Moreover, the chromatographic logP in data set [4] (log P) is 2.88.
Take `CNC(=O)c1cc(C#N)cc(C)c1NC(=O)c1cc(Cn2nnc(C(F)(F)F)n2)nn1-c1ncccc1F` [Example 405]: the pest or weed control at 100 g/ha in data set [1], in data set [2] (setting [5]) and in data set [3] (setting [6]) was no less than 80% throughout. In data set [4] (setting [8]), the chromatographic logP turned out to be 2.46.
For `Cc1cc(C#N)cc(C(=O)NC(C)C)c1NC(=O)c1cc(Cn2nnc(C(F)(F)F)n2)nn1-c1ncccc1F` [Example 406], the pest or weed control at 100 g/ha in data set [1], in data set [2] (setting [5]) and in data set [3] (setting [6]) was no less than 80% throughout. In addition, the chromatographic logP in data set [4] (setting [8]) came to 2.88.
As for `Cc1cc(C#N)cc(C(=O)NC(C)(C)C)c1NC(=O)c1cc(Cn2nnc(C(F)(F)F)n2)nn1-c1ncccc1F` [Example 407], the pest or weed control at 100 g/ha in data set [1], in data set [2] (setting [5]) and in data set [3] (setting [6]) was no less than 80% throughout. Also, the chromatographic logP in data set [4] (setting [8]) stood at 3.2.
`CNC(=O)c1cc(I)cc(C)c1NC(=O)c1cc(Cn2nnc(C(F)(F)F)n2)nn1-c1ncccc1Br` [Example 410]: the pest or weed control at 100 g/ha in data set [1], in data set [2] (setting [5]) and in data set [3] (setting [6]) was no less than 80% each time. The chromatographic logP in data set [4] (setting [8]) worked out at 3.26.
On to `CCNC(=O)c1cc(Br)cc(C)c1NC(=O)c1cc(Cn2nnc(C(F)(F)F)n2)nn1-c1ncccc1Br` [Example 411], for which the pest or weed control at 100 g/ha in data set [1], in data set [2] (setting [5]) and in data set [3] (setting [6]) was no less than 80% each time. The chromatographic logP in data set [4] (setting [8]) stood at 3.36.
As to `Cc1cc(I)cc(C(=O)NCC#N)c1NC(=O)c1cc(Cn2nnc(C(F)(F)F)n2)nn1-c1ncccc1Br` [Example 412], the pest or weed control at 100 g/ha in data set [1], in data set [2] (setting [5]) and in data set [3] (setting [6]) was no less than 80% in each case. Besides, in data set [4] (setting [8]), the chromatographic logP came to 3.16.
Turning to `Cc1cc(C#N)cc(C(=O)NC(C)C)c1NC(=O)c1cc(Cn2nnc(C(F)(F)C(F)(F)F)n2)nn1-c1ncccc1Br` [Example 423], the pest or weed control at 100 g/ha in data set [1], in data set [2] (setting [5]) and in data set [3] (setting [6]) was no less than 80% each time. Further, in data set [4] (setting [8]), the chromatographic logP was 3.46.
Regarding `Cc1cc(C#N)cc(C(N)=O)c1NC(=O)c1cc(Cn2nnc(C(F)(F)C(F)(F)F)n2)nn1-c1ncccc1Br` [Example 424], the pest or weed control at 100 g/ha in data set [1], in data set [2] (setting [5]) and in data set [3] (setting [6]) was no less than 80% in each case. The chromatographic logP in data set [4] (setting [8]) came to 2.8.
For `Cc1cc(C#N)cc(C(=O)NC(C)(C)C)c1NC(=O)c1cc(Cn2nnc(C(F)(F)C(F)(F)F)n2)nn1-c1ncccc1Br` [Example 425], the pest or weed control at 100 g/ha in data set [1], in data set [2] (setting [5]) and in data set [3] (setting [6]) was no less than 80% in each case. Further, the chromatographic logP in data set [4] (setting [8]) came out at 3.78.
In the case of `CCNC(=O)c1cc(C#N)cc(C)c1NC(=O)c1cc(Cn2nnc(C(F)(F)C(F)(F)F)n2)nn1-c1ncccc1Br` [Example 426], the pest or weed control at 100 g/ha in data set [1], in data set [2] (setting [5]) and in data set [3] (setting [6]) was no less than 80% in each case. For the same compound, in data set [4] (setting [8]), the chromatographic logP was found to be 3.23.
